Assay results taken from patent US5188830A, “Methods for thrombolytic therapy” (Merck & Co., Inc., priority 1990, dated 1993).

Tested on: blood clots
Assay: in vitro clot lysis assay (release of solubilized 125I-fibrin-derived fragments, lysis initiated by TPA)
Procedure: In the assay, whole blood or plasma is charged with ^125 I-fibrinogen. Thrombin is added to initiate clot formation and subsequently incubated for 2 hours to complete the cross-linking by endogenous Factor XIII. Factor XIIIa inhibitor is added prior to clot initiation or at various times during the 2-hour incubation. At the end of this period, the labelled clot is washed and lysis is initiated by exogenous tissue plasminogen activator (TPA). Exogenous plasminogen is employed in some experiments. Endogenous plasminogen is used for others. Clot dissolution as a function of time is monitored by the release of solubilized ^125 I-fibrin-derived fragments.
In FIGS. 1 and 2, the open symbols indicate absence of cerulenin and the closed symbols indicate the presence of 200 μM cerulenin at the time of clot formation. Clot lysis is conducted in buffer, pH 7.5; 5 ng/mL TPA represents approximate physiologic concentration. 50 to […] represents pharmacologic concentration range. […] FIG. 2 studies employed glu-plasminogen levels at approximately 10 percent physiologic level (12 μ/mL).

Structure (SMILES): C/C=C/C/C=C/CCC(=O)[C@H]1O[C@H]1C(N)=O [Cerulenin, 3-(1-oxo-4,7-nonadienyl)-oxiranecarboxamide]
- rates and extents of clot lysis (200 μM cerulenin at clot formation, no exogenous plasminogen, TPA at physiological and pharmacological levels, buffer pH 7.5 (FIG. 1)): enhanced rates and extents of lysis
- rate of TPA catalyzed clot lysis (200 μM cerulenin, 12 μg/mL exogenous glu-plasminogen, TPA, buffer pH 7.5 (FIG. 2)): lysis rates were further enhanced
